Measured values published in patent US4692463A, “Antiinflammatory 2,3-didemethylcolchicine and additional derivatives” (The United States of America as represented by the …, priority 1985, dated 1987).

What was measured:
tubulin protein = type: binding; conditions: in vitro
[1] = Toxicity measured in the P388 screen (weight loss in mice); type: in vivo; conditions: for Toxicity: dose which caused average weight loss in mice of 3 g or more: P388 screen
Description: ^1 Measured in the P388 screen and defined as dose which caused
average weight loss in mice of 3 g or more.

[2] = test system: swelling produced by injecting carrageenin into the footpad; assay: animal or person; type: in vivo, mice or rats; conditions: for Reduction of Swelling 3 hrs / Reduction of Swelling 5 hrs: dose 2 mg/kg i.p.; for Reduction of Swelling 3 hrs: 3 hours after; for Reduction of Swelling 5 hrs: 5 hours after; for minimal effective dose: Mus musculus, ip, classical drugs, carrageenin swelling screen, read-out: Dose level at which active (antiinflammatory)
Description: The antiinflammatory properties of colchinoids can be evaluated in a classical screening that measures the reduction of swelling produced by injecting (i.p.) carrageenin into the footpad of mice or rats and drug treatment. The drugs can be given orally or intraperitoneally.
Drug given in carrageenine or thyrode solution by i.p.

Compound: COc1c(O)c(O)cc2c1-c1ccc(OC)c(=O)cc1[C@@H](NC(C)=O)CC2 [2,3-Didemethylcolchicine]
- Binding to tubulin protein in comparison to colchicine (in words) (tubulin protein): bind less
- Toxicity: dose which caused average weight loss in mice of 3 g or more [1]: 54
- Toxicity in comparison to colchicine (in words) ([1]; experimental animals): much less toxic
- Reduction of Swelling 3 hrs [2]: 70
- Reduction of Swelling 5 hrs [2]: 60

Compound: COc1cc2c(c(OC)c1OC)-c1ccc(OC)c(=O)cc1[C@@H](NC(C)=O)CC2 [Colchicine]
- Toxicity: dose which caused average weight loss in mice of 3 g or more [1]: 2.5
- Reduction of Swelling 3 hrs [2]: 44
- Reduction of Swelling 5 hrs [2]: 45

Compound: COc1c2c(cc3c1-c1ccc(OC)c(=O)cc1[C@@H](NC(C)=O)CC3)OCO2 [Cornigerine, 2,3-(Methylenedioxy)-2,3-didemethoxycolchicine]
- Toxicity: dose which caused average weight loss in mice of 3 g or more [1]: 39
- Reduction of Swelling 3 hrs [2]: 44
- Reduction of Swelling 5 hrs [2]: 47

Compound: COc1ccc2c(c1)c(CC(=O)O)c(C)n2C(=O)c1ccc(Cl)cc1 [indomethacine, reference compound]
- minimal effective dose [2]: ≥ 100 mg/kg

Compound: CCCCC1C(=O)N(c2ccccc2)N(c2ccccc2)C1=O [phenybutazone, reference compound]
- minimal effective dose [2]: ≥ 100 mg/kg
